This is an account of results in ChEMBL document CHEMBL5523749, “Amphiphilic Heparinoids as Potent Antiviral Agents against SARS-CoV-2” (J Med Chem, 2024).

Each structure is given as a SMILES string. Converted amounts (≈) assume the structure as drawn.

Assay [1] has as its system SARS-CoV-2. In words: microbe, parasite or virus in culture. Particulars: Severe acute respiratory syndrome coronavirus 2, D614, Vero C1008.
Description: Antiviral activity against SARS-CoV-2 D614 isolates infected in African green monkey Vero E6 cells assessed as reduction in plaque formation treated for 1 hr prior to infection with cells incubated for 30 mins by plaque reduction neutralization test
For assay [2], the system named is SARS-CoV-2. The class given is functional, organism-based, Severe acute respiratory syndrome coronavirus 2, G614, Vero E6. The following applies: Severe acute respiratory syndrome coronavirus 2, G614, Vero C1008; read-out: IC50.

In assay [1], `CC(C)CCC[C@@H](C)[C@H]1CC[C@H]2[C@@H]3CC[C@H]4C[C@@H](O[C@@H]5O[C@@H](COS(=O)(=O)O)[C@@H](O[C@@H]6O[C@@H](COS(=O)(=O)O)[C@@H](OS(=O)(=O)O)[C@H](O)[C@H]6OS(=O)(=O)O)[C@H](O)[C@H]5OS(=O)(=O)O)CC[C@]4(C)[C@H]3CC[C@]12C` registered an IC50 of 32.1 µg/mL (≈ 28.8 µM).

For the compound `CCCCCCCCCCCCCCCCCC(=O)NCCCO[C@@H]1O[C@H](COS(=O)(=O)[O-])[C@@H](O[C@H]2O[C@H](COS(=O)(=O)[O-])[C@@H](O[C@H]3O[C@H](COS(=O)(=O)[O-])[C@@H](O[C@H]4O[C@H](COS(=O)(=O)[O-])C(S(=O)(=O)[O-])[C@H](OS(=O)(=O)[O-])[C@H]4OS(=O)(=O)[O-])[C@H](OS(=O)(=O)[O-])[C@H]3OS(=O)(=O)[O-])[C@H](OS(=O)(=O)[O-])[C@H]2OS(=O)(=O)[O-])[C@H](OS(=O)(=O)[O-])[C@H]1OS(=O)(=O)[O-].[Na+].[Na+].[Na+].[Na+].[Na+].[Na+].[Na+].[Na+].[Na+].[Na+].[Na+].[Na+].[Na+]` (some centres not stated), the IC50 was determined as 19.5 µg/mL in assay [1] and 70.8 µg/mL in assay [2].

`CC(C)CCC[C@@H](C)[C@H]1CC[C@H]2[C@@H]3CC[C@H]4C[C@@H](O[C@@H]5O[C@@H](C(=O)O)[C@@H](O[C@@H]6O[C@@H](C(=O)O)[C@@H](O[C@@H]7O[C@@H](C(=O)O)[C@@H](O[C@@H]8O[C@@H](C(=O)O)[C@@H](OS(=O)(=O)O)[C@H](O)[C@H]8OS(=O)(=O)O)[C@H](O)[C@H]7OS(=O)(=O)O)[C@H](O)[C@H]6OS(=O)(=O)O)[C@H](O)[C@H]5OS(=O)(=O)O)CC[C@]4(C)[C@H]3CC[C@]12C` came in with an IC50 in assay [1] of 48.5 µg/mL (≈ 32.5 µM).

On to `CC(C)CCC[C@@H](C)[C@H]1CC[C@H]2[C@@H]3CC[C@H]4C[C@@H](O[C@@H]5O[C@H](COS(=O)(=O)[O-])[C@@H](O[C@H]6O[C@H](COS(=O)(=O)[O-])[C@@H](O[C@H]7O[C@H](COS(=O)(=O)[O-])[C@@H](O[C@H]8O[C@H](COS(=O)(=O)[O-])[C@@H](O[C@H]9O[C@H](COS(=O)(=O)[O-])[C@@H](O[C@H]%10O[C@H](COS(=O)(=O)[O-])[C@@H](OS(=O)(=O)[O-])[C@H](OS(=O)(=O)[O-])[C@H]%10OS(=O)(=O)[O-])[C@H](OS(=O)(=O)[O-])[C@H]9OS(=O)(=O)[O-])[C@H](OS(=O)(=O)[O-])[C@H]8OS(=O)(=O)[O-])[C@H](OS(=O)(=O)[O-])[C@H]7OS(=O)(=O)[O-])[C@H](OS(=O)(=O)[O-])[C@H]6OS(=O)(=O)[O-])[C@H](OS(=O)(=O)[O-])[C@H]5OS(=O)(=O)[O-])CC[C@]4(C)[C@H]3CC[C@]12C.[Na+].[Na+].[Na+].[Na+].[Na+].[Na+].[Na+].[Na+].[Na+].[Na+].[Na+].[Na+].[Na+].[Na+].[Na+].[Na+].[Na+].[Na+].[Na+]`, for which the IC50 in assay [1] stood at 11.9 µg/mL; in assay [2], 65.9 µg/mL.

On to `CC(C)CCC[C@@H](C)[C@H]1CC[C@H]2[C@@H]3CC[C@H]4C[C@@H](O[C@@H]5O[C@@H](COS(=O)(=O)O)[C@@H](O[C@@H]6O[C@@H](COS(=O)(=O)O)[C@@H](O[C@@H]7O[C@@H](COS(=O)(=O)O)[C@@H](O[C@@H]8O[C@@H](COS(=O)(=O)O)[C@@H](OS(=O)(=O)O)[C@H](O)[C@H]8OS(=O)(=O)O)[C@H](O)[C@H]7OS(=O)(=O)O)[C@H](O)[C@H]6OS(=O)(=O)O)[C@H](O)[C@H]5OS(=O)(=O)O)CC[C@]4(C)[C@H]3CC[C@]12C`, for which the IC50 in assay [1] worked out at 27.5 µg/mL (≈ 15.6 µM).

By IC50 is commonly meant the concentration at which inhibition is half-maximal.
